Laboratory results: patent publication US20050281745A1, “Stable isotope based dynamic metabolic profiling of living organisms for characterization of metabolic diseases, drug testing and drug development” (priority 2002, published 2005)

Tested on: pentose cycle, glucose activation and fatty acid synthesis pathways
Test: stable isotope ([1,2-13C2]glucose) based dynamic metabolic profiling
Assay type: cell-based
Details: for cell proliferation rates / nucleic acid ribose synthesis through the non-oxidative steps of the pentose cycle: metabolic profile induced by cell transforming agents
Description: The present invention comprises, for example, the use of the stable [1,2-^13C2]glucose tracer for metabolic pathway analyses in cultures of mammalian cells, bacteria, virus hosting cells, phage hosting bacteria, tissue slices, perfused organs, living animals or humans. The invention provides a dynamic and comprehensive metabolic profiling technique by using specifically labeled glucose substrate isotopes which not only turn into intermediary metabolites but also produce mass isotopomers of these metabolites which can be separated, measured and quantitated using liquid and gas chromatography separation and mass spectrometry (GC/MS), other mass spectrometric analysis or nuclear magnetic resonance (NMR) instruments.
After treatments, while incubating with the isotope labeled glucose substrate, the profiling study may begin with the separation of cell pellets, cell culture media, blood plasma/serum or body fluids. The cell culture media may then be used for lactate and glutamate analyses. Lactate is an abundant cell media component of the 3 carbon metabolite pool of the cell. It is used to determine the relative activity of pentose cycle glucose oxidation and recycling into glycolysis, as the percent of substrate flux through glycolysis, also known as the Embden-Meyerhoff-Parnas pathway. Glutamate label accumulation represents tricarboxylic acid (TCA) cycle carbon substrate flow. Nucleic acid ribose and deoxyribose are used to determine cell viability (ribose) and cell proliferation (deoxyribose).
Cell cycle progression and the frequency of cell divisions are determined by the accumulation of ^13C label into deoxyribose, while cell viability, apoptosis and necrosis are determined by the differential incorporation of ^13C into ribose and deoxyribose. The major advantage of our label system introduced herein is that we can differentiate between glucose oxidation and nonoxidative ribose/deoxyribose synthesis during nucleic acid production in disease and health as well as during drug testing. Glycogen glucose represents glycogen synthesis, which can originate from activated glucose (direct glycogen synthesis) or indirectly from pentoses after glucose oxidation in the pentose cycle. Non-essential fatty acids of the saturated and desaturated kinds indicate the rate of de novo fatty acid synthesis from glucose and the contribution of fatty acid synthase, chain elongase and desaturase to cell differentiation, hormone synthesis and drug effects.
The details of how the invention can be carried out can be better understood by reference to the figures. […] Glucose activation via hexokinase/glucokinase and the formation of fructose-1,6-bis phosphate maintain the ^13C labeled carbons in the 1st and 2nd positions. ^13C-labeled carbon positions derived from [1,2-^13C2]glucose are shown by the “13” superscript, while ^12C native-labeled carbon positions are shown by the “12” superscript. Participating enzymes are italicized in all of the figures. Thus, a single version of the invention can be carried out by creating two separate cell culture systems. The first system is a control system which includes the ^13C labeled glucose which may be [1,2-^13C2] glucose. […]

Compound	glucose activation and oxidative and non-oxidative ribose synthesis from glucose (metabolic profile of anticancer compounds, associated with effective tumor growth control)	cell proliferation rates	nucleic acid ribose synthesis through the non-oxidative steps of the pentose cycle
Cc1ccc(NC(=O)c2ccc(CN3CCN(C)CC3)cc2)cc1Nc1nccc(-c2cccnc2)n1 [Gleevec]	inhibited		
CCOP(=S)(NC(C)C)Oc1ccccc1C(=O)OC(C)C (centres unmarked) [isofenphos]		increased	intense
transforming growth factor beta [TGF-beta]		increased	intense
